In ChEMBL document CHEMBL4004849, “Tetrazolylmethyl quinolines: Design, docking studies, synthesis, anticancer and antifungal analyses” (2017):
Converted amounts (≈) assume the structure as drawn. The source made the active and inactive calls. The rule behind the calls is not given here.

Columns and labels:
Assay type in all cases: functional
[1] = system: OVCAR-5; assay: Growth inhibition of human OVCAR5 cells at 10^-5 M incubated for 48 hrs by sulforhodamine B assay relative to control
[2] = system: OVCAR-4; assay: Growth inhibition of human OVCAR4 cells at 10^-5 M incubated for 48 hrs by sulforhodamine B assay relative to control
[3] = system: SK-MEL-28; assay: Growth inhibition of human SK-MEL-28 cells at 10^-5 M incubated for 48 hrs by sulforhodamine B assay relative to control
[4] = system: UACC-62; assay: Growth inhibition of human UACC62 cells at 10^-5 M incubated for 48 hrs by sulforhodamine B assay relative to control
[5] = system: EKVX; assay: Growth inhibition of human EKVX cells at 10^-5 M incubated for 48 hrs by sulforhodamine B assay relative to control
[6] = system: Aspergillus fumigatus; assay: Antifungal activity against Aspergillus fumigatus at 100 ug/ml by disc diffusion method; conditions: read-out: IZ
[7] = system: HCT-15; assay: Growth inhibition of human HCT15 cells at 10^-5 M incubated for 48 hrs by sulforhodamine B assay relative to control
[8] = system: COLO 205; assay: Growth inhibition of human COLO205 cells at 10^-5 M incubated for 48 hrs by sulforhodamine B assay relative to control
[9] = system: K562; assay: Growth inhibition of human K562 cells at 10^-5 M incubated for 48 hrs by sulforhodamine B assay relative to control
[10] = system: Candida albicans; assay: Antifungal activity against Candida albicans after 24 hrs by serial dilution method
[11] = system: BT-549; assay: Growth inhibition of human BT549 cells at 10^-5 M incubated for 48 hrs by sulforhodamine B assay relative to control
[12] = system: SNB-75; assay: Growth inhibition of human SNB75 cells at 10^-5 M incubated for 48 hrs by sulforhodamine B assay relative to control
[13] = system: Malme-3M; assay: Growth inhibition of human MALME-3M cells at 10^-5 M incubated for 48 hrs by sulforhodamine B assay relative to control
[14] = system: SK-OV-3; assay: Growth inhibition of human SKOV3 cells at 10^-5 M incubated for 48 hrs by sulforhodamine B assay relative to control
[15] = system: TK-10; assay: Growth inhibition of human TK10 cells at 10^-5 M incubated for 48 hrs by sulforhodamine B assay relative to control
[16] = system: Aspergillus fumigatus; assay: Antifungal activity against Aspergillus fumigatus after 24 hrs by serial dilution method
[17] = system: 786-0; assay: Growth inhibition of human 786-0 cells at 10^-5 M incubated for 48 hrs by sulforhodamine B assay relative to control
[18] = system: MDA-MB-468; assay: Growth inhibition of human MDA-MB-468 cells at 10^-5 M incubated for 48 hrs by sulforhodamine B assay relative to control
[19] = system: HCC 2998; assay: Growth inhibition of human HCC2998 cells at 10^-5 M incubated for 48 hrs by sulforhodamine B assay relative to control
[20] = system: SK-MEL-5; assay: Growth inhibition of human SK-MEL-5 cells at 10^-5 M incubated for 48 hrs by sulforhodamine B assay relative to control
[21] = system: SK-MEL-2; assay: Growth inhibition of human SK-MEL-2 cells at 10^-5 M incubated for 48 hrs by sulforhodamine B assay relative to control
[22] = system: OVCAR-8; assay: Growth inhibition of human OVCAR8 cells at 10^-5 M incubated for 48 hrs by sulforhodamine B assay relative to control
[23] = system: UACC-257; assay: Growth inhibition of human UACC257 cells at 10^-5 M incubated for 48 hrs by sulforhodamine B assay relative to control
[24] = system: Candida albicans; assay: Antifungal activity against Candida albicans at 100 ug/ml by disc diffusion method; conditions: read-out: IZ
[25] = system: UO-31; assay: Growth inhibition of human UO31 cells at 10^-5 M incubated for 48 hrs by sulforhodamine B assay relative to control
[26] = system: M14; assay: Growth inhibition of human M14 cells at 10^-5 M incubated for 48 hrs by sulforhodamine B assay relative to control
[27] = system: T47D; assay: Growth inhibition of human T47D cells at 10^-5 M incubated for 48 hrs by sulforhodamine B assay relative to control
[28] = system: NCI-H23; assay: Growth inhibition of human NCI-H23 cells at 10^-5 M incubated for 48 hrs by sulforhodamine B assay relative to control
[29] = system: SF-539; assay: Growth inhibition of human SF539 cells at 10^-5 M incubated for 48 hrs by sulforhodamine B assay relative to control
[30] = system: LOX IMVI; assay: Growth inhibition of human LOXIMVI cells at 10^-5 M incubated for 48 hrs by sulforhodamine B assay relative to control
[31] = system: NCI/ADR-RES; assay: Growth inhibition of human NCI-ADR-RES cells at 10^-5 M incubated for 48 hrs by sulforhodamine B assay relative to control
[32] = system: ACHN; assay: Growth inhibition of human ACHN cells at 10^-5 M incubated for 48 hrs by sulforhodamine B assay relative to control
[33] = system: MCF7; assay: Growth inhibition of human MCF7 cells at 10^-5 M incubated for 48 hrs by sulforhodamine B assay relative to control
[34] = system: SNB-19; assay: Growth inhibition of human SNB19 cells at 10^-5 M incubated for 48 hrs by sulforhodamine B assay relative to control
[35] = system: HL-60(TB); assay: Growth inhibition of human HL-60(TB) cells at 10^-5 M incubated for 48 hrs by sulforhodamine B assay relative to control
[36] = system: MDA-MB-231; assay: Growth inhibition of human MDA-MB-231/ATCC cells at 10^-5 M incubated for 48 hrs by sulforhodamine B assay relative to control
[37] = system: MDA-MB-435; assay: Growth inhibition of human MDA-MB-435 cells at 10^-5 M incubated for 48 hrs by sulforhodamine B assay relative to control
[38] = system: OVCAR-3; assay: Growth inhibition of human OVCAR3 cells at 10^-5 M incubated for 48 hrs by sulforhodamine B assay relative to control
[39] = system: SF-295; assay: Growth inhibition of human SF295 cells at 10^-5 M incubated for 48 hrs by sulforhodamine B assay relative to control
[40] = system: KM12; assay: Growth inhibition of human KM12 cells at 10^-5 M incubated for 48 hrs by sulforhodamine B assay relative to control
[41] = system: SR; assay: Growth inhibition of human SR cells at 10^-5 M incubated for 48 hrs by sulforhodamine B assay relative to control
[42] = system: NCI-H460; assay: Growth inhibition of human NCI-H460 cells at 10^-5 M incubated for 48 hrs by sulforhodamine B assay relative to control
[43] = system: SN12C; assay: Growth inhibition of human SN12C cells at 10^-5 M incubated for 48 hrs by sulforhodamine B assay relative to control
[44] = system: SW-620; assay: Growth inhibition of human SW620 cells at 10^-5 M incubated for 48 hrs by sulforhodamine B assay relative to control
[45] = system: Hs-578T; assay: Growth inhibition of human Hs 578T cells at 10^-5 M incubated for 48 hrs by sulforhodamine B assay relative to control

Compound: Clc1nc2ccccc2cc1Cn1nnc(Cc2ccccc2)n1
- inhibition of growth at 10 µM ([1]; OVCAR-5, 48 h, read-out: GI): -4.25%
- inhibition of growth at 10 µM ([2]; OVCAR-4, 48 h, read-out: GI): 70.3%
- inhibition of growth at 10 µM ([3]; SK-MEL-28, 48 h, read-out: GI): 15.3%
- inhibition of growth at 10 µM ([4]; UACC-62, 48 h, read-out: GI): 48.3%
- inhibition of growth at 10 µM ([5]; read-out: GI): 63.9%
- zone of inhibition at 100 µg/mL [6]: 16 mm
- inhibition of growth at 10 µM ([7]; HCT-15, 48 h, read-out: GI): 35%
- inhibition of growth at 10 µM ([8]; COLO 205, 48 h, read-out: GI): 17.3%
- inhibition of growth at 10 µM ([9]; K562, 48 h, read-out: GI): 44.8%
- MIC [10]: 25 µg/mL (≈ 74.4 µM)
- inhibition of growth at 10 µM ([11]; BT-549, 48 h, read-out: GI): 61.1%
- inhibition of growth at 10 µM ([12]; SNB-75, 48 h, read-out: GI): 44.6%
- inhibition of growth at 10 µM ([13]; read-out: GI): 34.4%
- inhibition of growth at 10 µM ([14]; SK-OV-3, 48 h, read-out: GI): 42.6%
- inhibition of growth at 10 µM ([15]; TK-10, 48 h, read-out: GI): 39.1%
- MIC [16]: 50 µg/mL (≈ 149 µM)
- inhibition of growth at 10 µM ([17]; 786-0, 48 h, read-out: GI): 27.1%
- inhibition of growth at 10 µM ([18]; MDA-MB-468, 48 h, read-out: GI): 88.9%
- inhibition of growth at 10 µM ([19]; HCC 2998, 48 h, read-out: GI): 18.7%
- inhibition of growth at 10 µM ([20]; SK-MEL-5, 48 h, read-out: GI): 99.3%
- inhibition of growth at 10 µM ([21]; SK-MEL-2, 48 h, read-out: GI): 41.2%
- inhibition of growth at 10 µM ([22]; OVCAR-8, 48 h, read-out: GI): 28.4%
- inhibition of growth at 10 µM ([23]; UACC-257, 48 h, read-out: GI): 46.4%
- zone of inhibition at 100 µg/mL [24]: 10 mm
- inhibition of growth at 10 µM ([25]; UO-31, 48 h, read-out: GI): 181%
- inhibition of growth at 10 µM ([26]; M14, 48 h, read-out: GI): 26.4%
- inhibition of growth at 10 µM ([27]; read-out: GI): 73.9%
- inhibition of growth at 10 µM ([28]; NCI-H23, 48 h, read-out: GI): 54.5%
- inhibition of growth at 10 µM ([29]; SF-539, 48 h, read-out: GI): 18.8%
- inhibition of growth at 10 µM ([30]; read-out: GI): 46.4%
- inhibition of growth at 10 µM ([31]; read-out: GI): 47.9%
- inhibition of growth at 10 µM ([32]; read-out: GI): 47.8%
- inhibition of growth at 10 µM ([33]; MCF7, 48 h, read-out: GI): 54.2%
- inhibition of growth at 10 µM ([34]; SNB-19, 48 h, read-out: GI): 10.2%
- inhibition of growth at 10 µM ([35]; HL-60, 48 h, read-out: GI): 12.1%
- inhibition of growth at 10 µM ([36]; MDA-MB-231, 48 h, read-out: GI): 47%
- inhibition of growth at 10 µM ([37]; MDA-MB-435, 48 h, read-out: GI): 34.7%
- inhibition of growth at 10 µM ([38]; OVCAR-3, 48 h, read-out: GI): 40.5%
- inhibition of growth at 10 µM ([39]; SF-295, 48 h, read-out: GI): 52.4%
- inhibition of growth at 10 µM ([40]; KM12, 48 h, read-out: GI): 33.7%
- inhibition of growth at 10 µM ([41]; read-out: GI): 63%
- inhibition of growth at 10 µM ([42]; NCI-H460, 48 h, read-out: GI): 25.7%
- inhibition of growth at 10 µM ([43]; read-out: GI): 29.7%
- inhibition of growth at 10 µM ([44]; SW-620, 48 h, read-out: GI): 13.4%
- inhibition of growth at 10 µM ([45]; read-out: GI): 23.4%

Compound: COc1ccc2nc(Cl)c(Cn3nnnc3CSc3ccccc3)cc2c1
- growth inhibition (GI) [1]: Active
- growth inhibition (GI) [2]: Active
- growth inhibition (GI) [3]: Active
- growth inhibition (GI) [4]: Active
- growth inhibition (GI) [5]: Active
- zone of inhibition at 100 µg/mL [6]: 18 mm
- growth inhibition (GI) [7]: Active
- growth inhibition (GI) [8]: Active
- growth inhibition (GI) [9]: Active
- MIC [10]: 25 µg/mL (≈ 62.8 µM)
- growth inhibition (GI) [11]: Active
- growth inhibition (GI) [12]: Active
- growth inhibition (GI) [13]: Active
- growth inhibition (GI) [14]: Active
- growth inhibition (GI) [15]: Active
- MIC [16]: 10 µg/mL (≈ 25.1 µM)
- growth inhibition (GI) [17]: Active
- growth inhibition (GI) [18]: Active
- growth inhibition (GI) [19]: Active
- growth inhibition (GI) [20]: Active
- growth inhibition (GI) [21]: Active
- growth inhibition (GI) [22]: Active
- growth inhibition (GI) [23]: Active
- zone of inhibition at 100 µg/mL [24]: 18 mm
- growth inhibition (GI) [25]: Active
- growth inhibition (GI) [26]: Active
- growth inhibition (GI) [27]: Active
- growth inhibition (GI) [28]: Active
- growth inhibition (GI) [29]: Active
- growth inhibition (GI) [30]: Active
- growth inhibition (GI) [31]: Active
- growth inhibition (GI) [32]: Active
- growth inhibition (GI) [33]: Active
- growth inhibition (GI) [34]: Active
- growth inhibition (GI) [35]: Active
- growth inhibition (GI) [36]: Active
- growth inhibition (GI) [37]: Active
- growth inhibition (GI) [38]: Active
- growth inhibition (GI) [39]: Active
- growth inhibition (GI) [40]: Active
- growth inhibition (GI) [41]: Active
- growth inhibition (GI) [42]: Active
- growth inhibition (GI) [43]: Active
- growth inhibition (GI) [44]: Active
- growth inhibition (GI) [45]: Active
